Source: doi:10.1101/2024.08.12.607575v1 (bioRxiv, 2024)
One block for each molecule: values may come before it. Bridge positions count the residues as written; N and C are the ends. Peptide text beside a SMILES is read from it.

Key:
[1] = test system: orthotopic 4T1.2 tumors; assay: MACTIDE-V monotherapy in orthotopic 4T1.2; assay type: in vivo, mouse; conditions: for CD8+ T cell density (mIHC): n=6 mice/group
[2] = test system: mouse bone marrow-derived macrophages (BMDMs); assay: Flow cytometry of BMDM markers; assay type: cell-based; conditions: Balb/C BMDMs, 48 h after treatment, not statistically significant
[3] = test system: orthotopic 4T1 tumors; assay: In vivo photodynamic therapy / treatment in orthotopic 4T1; design: species or system mouse; conditions: 30 nmoles i.p., no irradiation, compared with irradiated MACTIDE-V
[4] = test system: CD206; conditions: recognition moiety for CD206; cited from earlier work
[5] = test system: mouse bone marrow-derived macrophages (BMDMs); assay: Phagocytosis assay; assay type: cell-based; conditions: 10 µM 4 h, washed, 48 h follow-up, relative to MACTIDE and untreated
[6] = target: T1, human recombinant CD206 (Homo sapiens, UniProt P22897); assay: Quartz Crystal Microbalance; assay type: binding; conditions: QCM, PAH/CD206 multilayer
T1 sequence (P22897 19-1456): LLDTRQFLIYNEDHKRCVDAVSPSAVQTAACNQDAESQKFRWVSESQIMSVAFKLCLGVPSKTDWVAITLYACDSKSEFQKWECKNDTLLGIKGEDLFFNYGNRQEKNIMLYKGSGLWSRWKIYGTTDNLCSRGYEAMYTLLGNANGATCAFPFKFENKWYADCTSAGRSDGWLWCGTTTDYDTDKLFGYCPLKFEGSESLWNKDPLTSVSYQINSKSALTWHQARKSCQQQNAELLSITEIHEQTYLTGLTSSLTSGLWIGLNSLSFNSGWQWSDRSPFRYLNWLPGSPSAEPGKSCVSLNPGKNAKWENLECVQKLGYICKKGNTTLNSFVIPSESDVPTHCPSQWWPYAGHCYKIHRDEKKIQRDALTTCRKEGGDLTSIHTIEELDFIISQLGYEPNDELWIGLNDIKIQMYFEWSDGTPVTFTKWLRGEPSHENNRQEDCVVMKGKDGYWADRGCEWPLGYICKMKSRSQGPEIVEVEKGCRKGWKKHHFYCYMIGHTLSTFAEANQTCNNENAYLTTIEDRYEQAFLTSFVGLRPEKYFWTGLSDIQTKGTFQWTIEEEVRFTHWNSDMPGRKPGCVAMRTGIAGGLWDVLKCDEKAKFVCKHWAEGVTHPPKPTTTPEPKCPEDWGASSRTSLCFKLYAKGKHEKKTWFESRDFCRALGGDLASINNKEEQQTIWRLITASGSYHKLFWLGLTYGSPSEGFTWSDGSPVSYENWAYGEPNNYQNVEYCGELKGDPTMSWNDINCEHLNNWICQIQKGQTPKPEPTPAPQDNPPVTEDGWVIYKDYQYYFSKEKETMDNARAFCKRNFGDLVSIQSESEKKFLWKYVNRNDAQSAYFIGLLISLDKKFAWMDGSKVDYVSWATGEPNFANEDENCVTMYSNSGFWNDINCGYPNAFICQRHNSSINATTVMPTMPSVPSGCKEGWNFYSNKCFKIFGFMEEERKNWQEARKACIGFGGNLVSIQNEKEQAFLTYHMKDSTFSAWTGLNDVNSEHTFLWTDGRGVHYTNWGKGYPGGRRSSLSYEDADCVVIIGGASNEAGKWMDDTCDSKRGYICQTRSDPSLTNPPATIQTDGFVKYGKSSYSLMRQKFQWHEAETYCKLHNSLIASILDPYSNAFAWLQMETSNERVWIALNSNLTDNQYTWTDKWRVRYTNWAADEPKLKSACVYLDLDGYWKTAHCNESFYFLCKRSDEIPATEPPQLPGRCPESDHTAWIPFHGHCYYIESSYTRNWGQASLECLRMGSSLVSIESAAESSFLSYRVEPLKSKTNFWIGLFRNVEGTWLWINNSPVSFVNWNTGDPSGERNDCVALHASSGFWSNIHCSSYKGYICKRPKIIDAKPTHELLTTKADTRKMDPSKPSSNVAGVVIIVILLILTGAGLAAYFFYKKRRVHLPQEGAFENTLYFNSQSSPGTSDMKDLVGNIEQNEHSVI

[7] = tumor cell suspensions, n=4 per group

Molecule: Vert-Ahx-G(CTKSIPPIC)SPGAK-OH (disulfide) [MACTIDE-V]
CD8+ T cell density (mIHC) [1]: trend of increased CD8^+ T cell density
percentage of CD206+ cells in tumor (flow cytometry) [1, 7]: did not reduce
polymorphonuclear (PMN) or TAM/monocyte cell populations (flow cytometry) [1, 7]: no effects
viability and differentiation of BMDMs [2]: slightly affected
body weight, non-irradiated (-) [3]: less effect on body weight

Molecule: OC[C@H]1OC(O)[C@@H](O)[C@@H](O)[C@@H]1O (stereo partly drawn) [mannose]
affinity of mannose [4]: low millimolar range

dissociation upon washing with PBS [6]: incompletely and slowly dissociated
Molecule: CC[C@H](C)[C@@H]1NC(=O)[C@@H]2CCCN2C(=O)[C@@H]2CCCN2C(=O)[C@H]([C@@H](C)CC)NC(=O)[C@H](CO)NC(=O)[C@H](CCCCN)NC(=O)[C@H]([C@@H](C)O)NC(=O)[C@@H](NC(=O)CN)CSSC[C@@H](C(=O)N[C@@H](CO)C(=O)N2CCC[C@H]2C(=O)NCC(=O)N[C@@H](C)C(=O)N[C@@H](CCCCN)C(=O)O)NC1=O [MACTIDE] (H-GCTKSIPPICSPGAK-OH; disulfide 2-10)
phagocytosis of fluorescent E. coli particles [5]: no effects

Molecule: Vert-Ahx-AKPCGS-OH [CtrlPep-V, reference compound]
CD8+ T cell density (mIHC) [1]: trend of increased CD8^+ T cell density
